Laboratory results from paper PMC11474193, “A cub and sushi domain-containing protein with esterase-like activity confers insecticide resistance in the Indian malaria vector Anopheles stephensi” (The Journal of Biological Chemistry, 2024).

What was measured:
[1] = test system: T1, CUB and Sushi Domain-containing Insecticide Resistance (CSDIR) protein (XP_035915664.1); assay: SPR, steady-state fit; degradation by the protein also shown by UPLC; assay type: binding, Anopheles stephensi
T1 construct: CSDIR^913-1190 (C-terminal CUB and Sushi domains, recombinant in E. coli)

[2] = test system: T1, CUB and Sushi Domain-containing Insecticide Resistance (CSDIR) protein (XP_035915664.1); assay: SPR, immobilized CSDIR913-1190, steady-state fit; assay type: binding, Anopheles stephensi

CC1(C)[C@H](C(=O)O[C@H](C#N)c2cccc(Oc3ccccc3)c2)[C@@H]1C=C(Br)Br [deltamethrin]
Kd [1]: 46.7 µM

CCOC(=O)CC(SP(=S)(OC)OC)C(=O)OCC (centres unmarked) [malathion]
Kd [2]: 6.43 µM
